One assay relates to α6β2* and α3β2* nAChR. The conditions noted are these: cited from earlier work.
The test system of assay [1] is nAChRs on SuSC GABAergic terminals (crude synaptosomes). Format: biochemical, mouse.
In assay [2] the test system is α6* nAChRs, crude rat striatal synaptosomes. Particulars: cited from earlier work.
The subject of assay [3] is α6β2*-nAChR, crude striatal synaptosomes. It is filed as biochemical, mouse.

“Also recorded” adds a separate entry of the source.

As a reminder, the IC50 is the concentration needed to halve the response being measured.

Regarding α-conotoxin PIA [α-CtxPIA], the “subtypes inhibited by the α-conotoxin” value in the assay with α6β2* and α3β2* nAChR is given as “selective inhibitor of α6β2*-nAChR”. For the same substance, in assay [1], the “effect on ACh-evoked [^3H]-GABA release (abstract)” value was “did not affect [^3H]-GABA release”, the “inhibition of ACh-stimulated [^3H]-GABA release by 100nM α-CtxPIA” value was “completely unable to inhibit” and the “inhibition of ACh-stimulated [^3H]-GABA release by α-CtxPIA” value is “could not be reliably fit to an inhibition model; also recorded: no significant inhibition”. For the same substance, the “reversibility of inhibition of DA release” value in assay [2] is “slowly reversible”. Also, in assay [2] (read-out: IC50, inhibition of DA release stimulated by nicotine or ACh), the 50% inhibitory concentration (IC50) was 1.48 nM. Moreover, the “inhibition of ACh-stimulated [^3H]-dopamine release” value in assay [3] is recorded as 24.2 ± 3.3%.

The values are drawn from paper PMC4026281 (Journal of neurochemistry, 2012).
